A word on the inhibition: it is the change of the read-out against control, counted positive when it falls. As usually defined, the EC50 is the concentration needed to bring the measured effect to its halfway point.

Tankyrase-2, sequence (Q9H2K2 whole entry): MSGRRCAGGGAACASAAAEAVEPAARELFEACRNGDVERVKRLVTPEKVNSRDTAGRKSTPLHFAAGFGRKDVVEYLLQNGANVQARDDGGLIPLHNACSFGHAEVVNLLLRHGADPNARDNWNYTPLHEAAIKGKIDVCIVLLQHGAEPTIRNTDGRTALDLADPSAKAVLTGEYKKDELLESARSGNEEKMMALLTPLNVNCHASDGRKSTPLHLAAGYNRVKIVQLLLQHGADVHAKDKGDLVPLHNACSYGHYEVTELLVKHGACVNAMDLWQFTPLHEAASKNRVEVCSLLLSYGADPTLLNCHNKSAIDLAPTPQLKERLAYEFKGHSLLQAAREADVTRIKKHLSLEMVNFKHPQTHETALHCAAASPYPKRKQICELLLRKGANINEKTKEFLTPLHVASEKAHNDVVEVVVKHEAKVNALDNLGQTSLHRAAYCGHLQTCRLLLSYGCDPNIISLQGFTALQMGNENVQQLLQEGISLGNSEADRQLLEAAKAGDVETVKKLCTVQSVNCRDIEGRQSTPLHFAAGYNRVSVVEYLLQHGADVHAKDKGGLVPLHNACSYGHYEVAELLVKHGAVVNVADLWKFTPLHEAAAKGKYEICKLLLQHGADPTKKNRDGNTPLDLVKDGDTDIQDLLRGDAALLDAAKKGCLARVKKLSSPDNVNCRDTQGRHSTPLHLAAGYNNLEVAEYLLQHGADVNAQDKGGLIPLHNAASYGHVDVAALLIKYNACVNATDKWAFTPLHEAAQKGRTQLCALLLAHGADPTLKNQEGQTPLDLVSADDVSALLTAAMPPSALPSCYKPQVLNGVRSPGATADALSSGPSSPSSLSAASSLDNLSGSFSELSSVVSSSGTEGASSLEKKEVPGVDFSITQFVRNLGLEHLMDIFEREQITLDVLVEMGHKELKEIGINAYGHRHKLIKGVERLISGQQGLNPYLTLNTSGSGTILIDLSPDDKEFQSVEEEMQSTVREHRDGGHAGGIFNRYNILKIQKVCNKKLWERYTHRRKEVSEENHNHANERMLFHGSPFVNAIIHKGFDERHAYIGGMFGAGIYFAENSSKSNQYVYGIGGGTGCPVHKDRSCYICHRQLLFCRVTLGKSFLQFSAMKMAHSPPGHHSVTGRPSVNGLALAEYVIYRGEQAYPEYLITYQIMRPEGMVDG

The first test addresses Tankyrase-2 (Homo sapiens (Human), UniProt Q9H2K2). The test is described as follows: biochemical. As to conditions: read-out: Tankyrase-2 Inhibition @ 50 nM.
Take `O=c1[nH]nc2c3c(c(Cl)ccc13)NC1=C2CCCCC1` [Example 8, 6-Chloro-7,8,9,10,11,12-hexahydrocyclohepta[5,6]pyrido[4,3,2-de]phthalazin-3(2H)-one]: the inhibition at 0.05 µM turned out to be 2.3%. Take `O=c1[nH]nc2c3c(cccc13)NC1=C2c2ccccc2CC1` [Example 12, 8,9-Dihydro-2H-benzo[a]pyridazino[5,4,3-kl]acridin-3(7H)-one]: the inhibition at 0.05 µM stood at 14.3%. On the same count and under the same terms, to `O=c1[nH]nc2c3c(c(Cl)ccc13)NC1=C2CCCC1` [Example 9, 6-Chloro-8,9,10,11-tetrahydro-2H-pyridazino[5,4,3-kl]acridin-3(7H)-one] belongs 14.1%.

The next test deals with PARP PARylation in HeLa cells. The test is described as follows: PARylation assay in HeLa cells after H2O2. It is filed as cell-based. Conditions: Homo sapiens, 200 μM H2O2. As for the experimental part: HeLa cells were seeded into a 96-well plate with clear bottom and black wall at an initial concentration of 5000 cells/well in culture medium (100 μL of DMEM containing 10% FBS, 0.1 mg/mL penicillin-streptomycin, and 2 mML-glutamine). The plates were incubated for 4 h at 37° C. under 5% CO2 atmosphere, and then compounds were added with serial dilutions over eight points over a 0.01 nM-10 μM final concentration range in 0.1% DMSO/culture medium. The plate was then incubated for 18 h at 37° C. in 5% CO2. Then DNA damage was provoked by addition of 60 μL of H2O2 solution in PBS (final concentration 200 μM). As a negative control, cells untreated with H2O2 were used. The plate was kept at 37° C. for 5 min. Then the medium was gently removed by plate inversion, and the cells were fixed by addition of ice-cold MeOH (100 μL/well) and kept at −20° C. for 20 min. After removal of the fixative by plate inversion and washing 10 times with PBS (120 μL), the detection buffer (50 μL/well, containing PBS, Tween (0.1%), and BSA (1 mg/mL)) together with the primary PAR mAb (Alexis ALX-804-220, 1:2000), the secondary anti-mouse Alexa Fluor 488 antibody (MolecularProbes A11029, 1:2000), and nuclear dye DAPI (Molecular Probes D3571, 150 nM) were added. Following overnight incubation at 4° C. in the dark, removal of the solution, and washing 6 times with PBS (120 μL), the plate was read on an ArrayScan VTI (ThermoFisher). Monitoring for PAR polymer was by detection of Alexa488 at XF100_485_20, exposure time of 0.05 s, and identification of the nuclei was by tracking DAPI with XF100_386_23, exposure time of 0.01 s. The mean value of total intensity of cells was calculated by measuring the average of total intensity of nuclei over the total number of DAPI-labeled nuclei. The EC50 was determined on the basis of the residual enzyme activity in the presence of increasing PARPi concentration.
`CC(C)(NC(=O)OCc1ccccc1)C(=O)N1CCC2=C(C1)Nc1cccc3c(=O)[nH]nc2c13` [Example 15, Benzyl(2-methyl-1-oxo-1-(3-oxo-10,11-dihydro-2H-phthalazino[8,1-bc][1,7]naphthyridin-9(3H,7H,8H)-yl)propan-2-yl)carbamate] showed an EC50 of 269 nM. `CC1(C)C(C(=O)N2CCC3=C(C2)Nc2cccc4c(=O)[nH]nc3c24)C1(C)C` [Example 17, 9-(2,2,3,3-Tetramethylcyclopropanecarbonyl)-8,9,10,11-tetrahydro-2H-phthalazino[8,1-bc][1,7]naphthyridin-3(7H)-one] gave an EC50 of 0.9 nM. On the same count and under the same terms, under `O=c1[nH]nc2c3c(cccc13)NC1=C2CCN(Cc2ccccc2)C1` [Example 18, 9-benzyl-8,9,10,11-tetrahydro-2H-phthalazino[8,1-bc][1,7]naphthyridin-3(7H)-one] stands 9.7 nM; under `Cc1ccc2c(=O)[nH]nc3c2c1NC1=C3CCCC1` [Example 5, 6-Methyl-8,9,10,11-tetrahydro-2H-pyridazino[5,4,3-kl]acridin-3(7H)-one], 477 nM. Same read-out and setting: to `O=c1[nH]nc2c3c(c(Cl)ccc13)NC1=C2CCCCC1` [Example 8, 6-Chloro-7,8,9,10,11,12-hexahydrocyclohepta[5,6]pyrido[4,3,2-de]phthalazin-3(2H)-one] belongs 43.2 nM.

In turn, `O=c1[nH]nc2c3c(cccc13)NC1=C2CCCCCC1` [Example 3, 8,9,10,11,12,13-Hexahydro-2H-cycloocta[5,6]pyrido[4,3,2-de]phthalazin-3(7H)-one] had a concentration giving a half-maximal response (EC50) of 0.6 nM. Compound `O=c1[nH]nc2c3c(cccc13)NC1=C2c2ccccc2CC1` [Example 12, 8,9-Dihydro-2H-benzo[a]pyridazino[5,4,3-kl]acridin-3(7H)-one] returned a concentration giving a half-maximal response (EC50) of 6.8 nM. Take `O=c1[nH]nc2c3c(c(Cl)ccc13)NC1=C2CCCC1` [Example 9, 6-Chloro-8,9,10,11-tetrahydro-2H-pyridazino[5,4,3-kl]acridin-3(7H)-one]: it took 43.2 nM to reach a half-maximal effect (EC50).

With `O=c1[nH]nc2c3c(c(Br)ccc13)NC1=C2CCCC1` [Example 7, 6-Bromo-8,9,10,11-tetrahydro-2H-pyridazino[5,4,3-kl]acridin-3(7H)-one], the EC50 stood at 32 nM. On the same count and under the same terms, to `O=c1[nH]nc2c3c(cccc13)NC1=C2CCC1` [Example 10, 7,8,9,10-Tetrahydrocyclopenta[5,6]pyrido[4,3,2-de]phthalazin-3(2H)-one] belongs 4.6 nM; to `O=c1[nH]nc2c3c(c(Br)ccc13)NC1=C2CCCCC1` [Example 6, 6-Bromo-7,8,9,10,11,12-hexahydrocyclohepta[5,6]pyrido[4,3,2-de]phthalazin-3(2H)-one], 139 nM. Same read-out and setting: under `O=c1[nH]nc2c3c(cccc13)NC1=C2CCCCC1` [Example 4, 7,8,9,10,11,12-Hexahydrocyclohepta[5,6]pyrido[4,3,2-de]phthalazin-3(2H)-one] stands 0.75 nM.

Regarding `CC(C)(C)OC(=O)N1CCC2=C(C1)Nc1cccc3c(=O)[nH]nc2c13` [Example 13, Tert-butyl 3-oxo-7,8,10,11-tetrahydro-2H-phthalazino[8,1-bc][1,7]naphthyridine-9(3H)-carboxylate], the concentration giving a half-maximal response (EC50) came to 0.7 nM. On the same count and under the same terms, under `O=c1[nH]nc2c3c(cccc13)NC1=C2CCCC1` [Example 2, 8,9,10,11-Tetrahydro-2H-pyridazino[5,4,3-kl]acridin-3 (7H)-one] stands 1.2 nM. Same read-out and setting: under `O=c1[nH]nc2c3c(cccc13)NC1=C2CCNC1` [Example 14, 8,9,10,11-Tetrahydro-2H-phthalazino[8,1-bc][1,7]naphthyridin-3 (7H)-one] stands 14 nM; under `CC1(C(=O)N2CCC3=C(C2)Nc2cccc4c(=O)[nH]nc3c24)CC1` [Example 16, 9-(1-Methylcyclopropanecarbonyl)-8,9,10,11-tetrahydro-2H-phthalazino[8,1-bc][1,7]naphthyridin-3(7H)-one], 5.4 nM. With `CC1(C)CCC2=C(C1)c1n[nH]c(=O)c3cccc(c13)N2` [Example 1, 10,10-Dimethyl-8,9,10,11-tetrahydro-2H-pyridazino[5,4,3-kl]acridin-3(7H)-one], the EC50 is 0.8 nM.

The values are drawn from patent US9328111B2, “Substituted cycloocta[5,6]pyrido[4,3,2-de]phthalazines as PARP inhibitors” (BeiGene Ltd., priority 2011, dated 2016).
